Test results reported in ChEMBL document CHEMBL1201862, “PubChem BioAssay data set” (2004).
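Growth conditions: 96-well plates. Treatment: test compound, 48 hours, 5 concentrations. Analysis: linear interpolation between bracketing concentrations; unreached endpoints set to highest concentration. The concentration for 50% growth inhibition is given as GI50.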 Activity calls are given as the source filed them. No stated cut-off is given here; in the data, active = GI50 up to about 1.1 µM and inactive = higher.

Columns and labels:
Experiment in all cases: NCI-60 cell line screen, 48 h
786-0 = system: 786-0
A498 = system: A498
A549 = system: A549
ACHN = system: ACHN
BT-549 = system: BT-549
CAKI-1 = system: CAKI-1
CCRF-CEM = system: CCRF-CEM
COLO 205 = system: COLO 205
DU-145 = system: DU-145
EKVX = system: EKVX
HCT-116 = system: HCT-116
HCT-15 = system: HCT-15
HL-60 = system: HL-60
HOP-62 = system: HOP-62
HOP-92 = system: HOP-92
HT-29 = system: HT-29
Hs-578T = system: Hs-578T
IGROV-1 = system: IGROV-1
K562 = system: K562
KM12 = system: KM12
LOX IMVI = system: LOX IMVI
M14 = system: M14
MCF7 = system: MCF7
MDA-MB-231 = system: MDA-MB-231
MDA-MB-435 = system: MDA-MB-435
MOLT-4 = system: MOLT-4
Malme-3M = system: Malme-3M
NCI-H226 = system: NCI-H226
NCI-H23 = system: NCI-H23
NCI-H460 = system: NCI-H460
NCI-H522 = system: NCI-H522
NCI/ADR-RES = system: NCI/ADR-RES
OVCAR-3 = system: OVCAR-3
OVCAR-4 = system: OVCAR-4
OVCAR-5 = system: OVCAR-5
OVCAR-8 = system: OVCAR-8
PC-3 = system: PC-3
RPMI-8226 = system: RPMI-8226
RXF 393 = system: RXF 393
SF-268 = system: SF-268
SF-295 = system: SF-295
SF-539 = system: SF-539
SK-MEL-28 = system: SK-MEL-28
SK-MEL-2 = system: SK-MEL-2
SK-OV-3 = system: SK-OV-3
SN12C = system: SN12C
SNB-19 = system: SNB-19
SNB-75 = system: SNB-75
SR = system: SR
SW-620 = system: SW-620
T47D = system: T47D
TK-10 = system: TK-10
U-251 = system: U-251
UACC-257 = system: UACC-257
UACC-62 = system: UACC-62
UO-31 = system: UO-31
MDA-N = system: MDA-N
SK-MEL-5 = system: SK-MEL-5

In the case of `Cc1ccc2nc3ccccc3c(C3C4C(=O)N(c5ccc(F)cc5)C(=O)C4ON3C(C(N)=O)c3ccccc3)c2c1` (stereo unspecified), the GI50 (786-0) is reported as 37.9 µM (inactive), the GI50 (A498) is reported as 41.1 µM (inactive) and the GI50 (A549) is reported as 29.4 µM (inactive). For the same compound, the GI50 (ACHN) was 49.3 µM (inactive), the GI50 (BT-549) was > 100 µM (inactive) and the GI50 (CAKI-1) was 24.4 µM (inactive). For the same compound, the GI50 (CCRF-CEM) was 38.5 µM (inactive), the GI50 (COLO 205) was 17.5 µM (inactive) and the GI50 (DU-145) was 59.3 µM (inactive). The GI50 (EKVX) was 30.5 µM (inactive), the GI50 (HCT-116) was 26.4 µM (inactive) and the GI50 (HCT-15) was 27.2 µM. For the same compound, the GI50 (HL-60) was 34.9 µM (inactive), the GI50 (HOP-62) was 71.8 µM (inactive) and the GI50 (HOP-92) was 37.1 µM (inactive). For the same compound, the GI50 (HT-29) was 26.1 µM (inactive), the GI50 (Hs-578T) was 31.3 µM (inactive) and the GI50 (IGROV-1) was 25.4 µM (inactive). The GI50 (K562) was 50.6 µM (inactive), the GI50 (KM12) was 32.4 µM (inactive) and the GI50 (LOX IMVI) was 24.5 µM (inactive). For the same compound, the GI50 (M14) was 57 µM (inactive), the GI50 (MCF7) was 23.4 µM (inactive) and the GI50 (MDA-MB-231) was 39.8 µM (inactive). The GI50 (MDA-MB-435) was 26.2 µM (inactive), the GI50 (MOLT-4) was 41.6 µM (inactive) and the GI50 (Malme-3M) was 27.4 µM (inactive). The GI50 (NCI-H226) was 46.3 µM (inactive), the GI50 (NCI-H23) was 29.9 µM (inactive) and the GI50 (NCI-H460) was 34.8 µM (inactive). The GI50 (NCI-H522) was 17.5 µM (inactive), the GI50 (NCI/ADR-RES) was 29.2 µM (inactive) and the GI50 (OVCAR-3) was 26.7 µM (inactive). For the same compound, the GI50 (OVCAR-4) was 41.1 µM (inactive), the GI50 (OVCAR-5) was 25.8 µM (inactive) and the GI50 (OVCAR-8) was 46 µM (inactive). The GI50 (PC-3) was 55.2 µM (inactive), the GI50 (RPMI-8226) was 25.3 µM (inactive) and the GI50 (RXF 393) was 30.2 µM (inactive). For the same compound, the GI50 (SF-268) was 47.1 µM (inactive), the GI50 (SF-295) was 28.8 µM (inactive) and the GI50 (SF-539) was 27.6 µM (inactive). The GI50 (SK-MEL-28) was 59 µM (inactive), the GI50 (SK-MEL-2) was 33.3 µM (inactive) and the GI50 (SK-OV-3) was 33.2 µM (inactive). The GI50 (SN12C) was 33 µM (inactive), the GI50 (SNB-19) was 57.8 µM (inactive) and the GI50 (SNB-75) was 76.9 µM (inactive). The GI50 (SR) was 40.9 µM (inactive), the GI50 (SW-620) was 37.1 µM (inactive) and the GI50 (T47D) was 84.1 µM (inactive). For the same compound, the GI50 (TK-10) was 55.6 µM (inactive), the GI50 (U-251) was 29.4 µM (inactive) and the GI50 (UACC-257) was 42.7 µM (inactive). For the same compound, the GI50 (UACC-62) was 20.6 µM (inactive) and the GI50 (UO-31) was 36.1 µM (inactive).
`CCN(CC)CCNc1n[n+]([O-])c2cc([N+](=O)[O-])ccc2[n+]1[O-]` was tested, and the GI50 (A498) was 1.9 µM (inactive), the GI50 (A549) was 0.454 µM (active) and the GI50 (BT-549) was 1.19 µM (inactive). The GI50 (CAKI-1) was 0.205 µM (active), the GI50 (COLO 205) was 0.326 µM (active) and the GI50 (EKVX) was 1.94 µM (inactive). The GI50 (HCT-116) was 0.3 µM (active), the GI50 (HOP-62) was 0.434 µM (active) and the GI50 (HT-29) was 0.197 µM (active). For the same compound, the GI50 (Hs-578T) was 3.25 µM (inactive), the GI50 (IGROV-1) was 0.116 µM (active) and the GI50 (KM12) was 0.504 µM (active). The GI50 (LOX IMVI) was 0.444 µM (active), the GI50 (M14) was 0.377 µM (active) and the GI50 (MDA-MB-435) was 0.847 µM (active). For the same compound, the GI50 (MDA-N) was 0.452 µM (active), the GI50 (NCI-H226) was 1.83 µM (inactive) and the GI50 (NCI/ADR-RES) was 0.979 µM (active). The GI50 (OVCAR-3) was 0.865 µM (active), the GI50 (OVCAR-4) was 1 µM (active) and the GI50 (OVCAR-5) was 2.04 µM (inactive). The GI50 (OVCAR-8) was 0.283 µM (active), the GI50 (RXF 393) was 0.809 µM (active) and the GI50 (SF-268) was 0.568 µM (active). For the same compound, the GI50 (SK-MEL-28) was 3.41 µM (inactive), the GI50 (SK-MEL-5) was 0.429 µM (active) and the GI50 (SK-OV-3) was 0.687 µM (active). For the same compound, the GI50 (SNB-19) was 1.19 µM (inactive), the GI50 (U-251) was 0.603 µM (active) and the GI50 (UO-31) was 1.84 µM (inactive).
